BigSolDB 2.1

O=C(O)c1ccc(C(=O)O)o1
solubility (mole fraction)
Settings	in 1,2-dimethoxyethane	in 1,4-dioxane	in THF	in diglyme
293.15 K	–	–	0.00772	–
298.15 K	–	–	0.00826	–
303.15 K	0.00344	0.00421	0.00884	0.00653
308.15 K	0.00372	0.00458	0.00939	0.00704
313.15 K	0.0039	0.00481	0.00998	0.00735
318.15 K	0.0041	0.00521	0.0108	0.00767
323.15 K	0.00432	0.00573	0.0116	0.00801
328.15 K	0.00458	0.00631	0.0122	0.00842
333.15 K	0.00487	0.00739	0.0128	0.00887
338.15 K	0.00528	0.00827	–	0.00937
343.15 K	0.00558	0.00886	–	0.00965
348.15 K	–	–	–	0.0103
353.15 K	–	–	–	0.0105
